Marks after values point to notes of the source that are not given here.
What was measured:
[1] = system: immune organs (thymus, spleen); assay: immune organ coefficient of mouse, prednisone acetate immunosuppression; format: in vivo, NIH mice; details: Dosage/kg/day 0.04
Method: (§1) The mice were divided into 6 groups randomly, i.e. control group, modeled group, levamisole-treated group, and three Shengmaichenggu capsule-treated groups (dosages are shown in table 14). […] Administered distilled water to the control group by gavage in the same period. At the time of 30 minutes after administering on the day 20, injected […] into tail vein at a dosage of 0.01 ml/l10 g. At the 2th and 12th minute after injection, took 10 μl orbit blood and put into 3 ml 0.1% Na2CO3 solution and shook up. Detected optical density (OD) by colorimetric analysis in 722-grating photometer (λ=620). […] The animals were killed by dislocating cervical vertebra. The liver and spleen were weighted respectively. Determined the weight of immune organs of every mouse according to the immune organ weighting method. Calculated the immune organ index and made a statistical analysis for the result.

[2] = system: mice lymphocyte; assay: cellular immunity test: transformation reaction of mice lymphocyte (PHA); format: in vivo, NIH mice; details: 0.04 g/kg/day
Method: The mice were divided into 6 groups randomly, i.e. control group, model group levamisole-treated group, and three Shengmaichenggu capsule-treated groups at different dosages (dosages are shown in table 17). Administered by gavage once a day for continuous 7 days. After the last administration, all the animals were immunized by injecting 5% suspension of chicken red blood cells to abdominal cavity at a dosage of 0.2 ml/one mouse. Then the animals were injected PHA to abdominal cavity at a dosage of 0.025 ml/10 g for continuous 3 days. All groups except control group were administered prednisone acetate at a dosage of […] body weight by gavage for continuous 7 days. At the time of 12 hours after last administration, the experiment was carried out according to the Experiment of the content of mouse hemolysin mentioned above in which chicken blood cells were used as immunogen.

[3] = system: serum hemolysin; assay: hemolysin content of mouse immunised by chicken blood cells; format: in vivo, NIH mice; details: 0.04 g/kg/day
Method: The grouping and administering scheme was the same as that of the above-mentioned Experiment of nonspecific immunological functions. At the first day of administration, injected 5% suspension of chicken red blood cells to abdominal cavity of mice at a dosage of 0.2 ml/one mouse. Seven days after immunization, took blood from eyeball and centrifuged. The serum was diluted 100 times with physiological saline. 1 ml of the diluted serum was mixed with 0.5 ml of 5% suspension of chicken red blood cells and 0.5 ml of 10% complement. After incubation in an incubator at 37° C. for 30 minutes, the reaction was terminated by putting the mixture into a 0° C. refrigerator.
The formulated test solution was centrifuged. Took the supernatant and detected optical density (OD) by colorimetric analysis in 722-grating photometer (λ=620). Set up a control group free of serum and took the supernatant of the centrifuged test solution of this group as the “0” basis for colorimetric assay. Took “OD” as the index for quantifying the serum hemolysin and analysed the data statistically.

[4] = system: monocytophagous function; assay: monocytophagous function of mouse (china ink clearance), prednisone acetate immunosuppression; format: in vivo, NIH mice; details: 0.04 g/kg/day, gavage 20 days
Method: as §1

[5] = system: acute blood stasis model; assay: hermorheology index of rat acute blood stasis model; format: in vivo, SD rats; details: 90 mg/kg/day, gavage 20 days
Method: The rats were divided into 6 groups randomly, i.e. normal control group, blood stasis model group, Tetramethylpyrazine phosphate-treated group and three Shengmaichegngu capsule-treated groups (the dosage were shown in table 9). The control group and the blood stasis model group were administered equal volume of distilled water by gavage. Every treated groups were administered liquor drug with different concentrations at a dosage of 2 ml/100 g weight/day, once daily at a fixed time for 20 days. When 24 hours after the last administration, animals except the normal control group were injected epinephrine hydrochloride hypodermically for two times (0.8 mg/kg) with an interval of 3 hours. The rats were immersed in water at 4±1° C. for 5 minutes at the time of 1.5 hour after the first injection of epinephrine hydrochloride, then the animals fast. In the next morning, eyeball blood was taken from anesthetized animals (injected pentobarbital sodium to abdominal cavity at a dosage of 30 mg/kg ). Hermorheology indexes were determined which include specific viscosity of whole blood, specific viscosity of plasma, erythrocyte sedimentation and hematokrit.

[6] = system: mouse pinnal inflammation caused by dimethylbenzene; assay: mouse pinnal inflammation induced by dimethylbenzene; format: in vivo, NIH mice; details: 0.013 g/kg/day, gavage 7 days
Method: Divided the mice into 5 groups randomly with 8 mice each, i.e. control group, indometacin-treated group and three Shengmaichenggu capsule-treated groups (dosages are shown in table 12). The mice were administered medicaments in different concentration by gavage. […] Killed the mice after […] by decollation. Cut out the equal area at the same position from both ears of the mouse with perforator, and weighted with torsion balance. The swell degree is defined as the weight difference of subtracting the weight of the right ear from that of the left. Analyzed the data of swell degree of the control group and the treated groups statistically.

[7] = system: threshold of pain; assay: hot-plate test on mouse; format: in vivo, NIH female mice
Method: Adjusted the temperature of water bath box to 55° C.±1° C. I.C. Immersed one big beaker in the water bath and put mice into the beaker. Recorded the period from the time when animals were put into the beaker to that when animals licked feet due to pain, and defined the period as the threshold of pain of that mouse.
Screened out the mice whose threshold of pain were in the range of 5-30 seconds, and divided them randomly into 5 groups including control group, indometacin-treated group and three Shengmaichenggu capsule-treated groups (The dosage are shown in table 11). Administered medicaments to animals by gavage for continuous 7 days. Determined the threshold of pain at the time of 30 minutes and 60 minutes after the administration at day 7 respectively, and observed the changes in the threshold of pain after administration. Room temperature should be controlled in the range of 15-20° C.

[8] = system: mouse pain induced by acetic acid; assay: writhing response on mouse (acetic acid); format: in vivo, NIH mice; details: 0.013 g/kg/day, gavage 7 days
Method: Divided the mice into 5 groups randomly, i.e. control group (0.2 ml/10 g distilled water), indometacin-treated group (0.013 g/kg) and three Shengmaichenggu capsule-treated groups (dosages are shown in table 10). The mice were administered by gavage for 7 days. […] Recorded the first time when the writhing response appeared caused by pain for each mouse, the number of the writhing response appeared in 10 minute and the analgesic percent.

[9] = system: tampon-induced granuloma; assay: granuloma induced by tampon on rat; format: in vivo, SD rats; details: 25 mg/kg/day, gavage
Method: The rats were divided into 5 groups randomly with 12 rats each group, i.e. control group, prednisone acetate-treated group and three Shengmaichenggu capsule-treated groups. An incision was made aseptically along the dorsimeson of a rat anesthetized by pentobarbital sodium and a sterilized tampon was imbedded into the incision and sewed up. The treated groups were administered by gavage 3 days before surgery until the day 7 after surgery. At the 8th day after surgery, the rats were killed by decollation. Avulsed out the tampon-caused granuloma tissue and dried it at 60-90° C. in a oven for 1 hour. Then weighted and subtracted the initial weight of tampon to get the net weight of granuloma tissue. Compared the granuloma weight among these groups and analyzed the results statistically.

**Q.** Which results are given for `c1ccc([C@H]2CN3CCSC3=N2)cc1` [Levamisole, levamisole]?
**A.** Immune organ coefficient, Spleen [1]: 52.82 ± 0.887 mg/kg; Immune organ coefficient, Thymus [1]: 1.501 ± 0.334 mg/kg; Transformation rate of lymphocyte [2]: 0.7370 ± 0.03234 %; limphoblast [2]: 0.4310 ± 0.05043 %; transition state cells [2]: 0.3050 ± 0.0495 %; OD (Optical density), hemolysin content [3]: 0.7370 ± 0.1444; Phagocytic activity α [4]: 5.1964 ± 0.7761; Phagocytic count K [4]: 0.0273 ± 0.00852

**Q.** How did the Erythrocyte sedimentation [5] turn out when `Cc1nc(C)c(C)nc1C.O=P(O)(O)O` [Tetramethylpyrazine phosphate] was run?
**A.** 1.80 ± 0.27

**Q.** What about the Hematokrit [5] of the same compound?
**A.** 43.55 ± 2.39

**Q.** And the “Specific viscosity of plasma” value [5]?
**A.** 1.95 ± 0.08

**Q.** What about the “Specific viscosity of whole blood, High shearviscosity coefficient” value [5] of the same compound?
**A.** 5.59 ± 0.40

**Q.** What about the “Specific viscosity of whole blood, Lower shearviscosity coefficient” value [5] of the same compound?
**A.** 20.87 ± 2.63

**Q.** With `COc1ccc2c(c1)c(CC(=O)O)c(C)n2C(=O)c1ccc(Cl)cc1` [Indometacin, indometacin] as the compound, how does the Swell degree [6] read?
**A.** 0.5500 ± 0.258 mg

**Q.** And the “Threshold of pain at different time after administration, 30 min” value ([7]; 0.013 g/kg/day, day 7, 30 min)?
**A.** 28.07 ± 6.67 S

**Q.** What about the “Threshold of pain at different time after administration, 60 min” value ([7]; 0.013 g/kg/day, day 7, 60 min) of the same compound?
**A.** 24.64 ± 6.49 S

**Q.** And the “Threshold of pain before administration” value ([7]; baseline, group 0.013 g/kg/day)?
**A.** 18.93 ± 5.41 S

**Q.** What about the Analgesic percent [8] of the same compound?
**A.** 75## %

**Q.** And the “Number of writhing mice” value [8]?
**A.** 2##

**Q.** And the “The First time when the writhing response appeared” value [8]?
**A.** 572.75 ± 182.13 s

**Q.** For `CC(=O)OCC(=O)[C@@]1(O)CC[C@H]2[C@@H]3CCC4=CC(=O)C=C[C@]4(C)[C@H]3C(=O)C[C@@]21C` [Prednisone acetate, prednisone acetate], which “Net weight of granuloma” value [9] is on record?
**A.** 33.45 ± 13.10 mg
